Measured values taken from US20050119305A1, “Il-6 production inhibitors” (priority 2001, published 2005).

Tested on: IL-6 production from A549 cells
Assay: Inhibitory activity on IL-6 production from A549 cells (TNF-α stimulated, ELISA)
Assay type: cell-based
Settings: A549 cells (human lung epithelial cell line), TNF-α stimulation, 24 hours incubation, IL-6 in supernatant by ELISA; read-out: 50% inhibitory concentration (IC50) on IL-6 production
Procedure: According to following experiments, it is confirmed that the compound of the present invention has an inhibitory activity on IL-6 production. • (1) The Measurement of an Inhibitory Activity on IL-6 Production from A549 Cells Method:
1.5×10^4 of A549 cells (human lung epithelial cell line) were suspended in 100 μL of Dulbecco's Modified Eagle Medium (DMEM) containing 0.5% fetal bovine serum (abbreviated as FBS) and incubated for a day and night in 96 well-microplate. 20 μL of the test compound dissolved in dimethylsulfoxide (DMSO) at various concentrations and 80 μl of tumor necrosis factor-α (TNF-α (Genzyme Co., cat. No. TNF-H)) dissolved in serum-free DMEM at the concentration of 12.5 ng/mL were added thereto. After the incubation for 24 hours, the supernatant (100 μL) was collected to measure the amount of IL-6 being produced using enzyme linked immuno […] assay (ELISA) (R&D Systems Co., cat. No. D6050). Then the inhibitory activity of the test compound was calculated and the 50% inhibitory concentration (IC50) was determined.

IC50: 180 nM
SMILES: O=C(CCCCCNC(=O)c1ccc(-c2ccccc2)cc1)NO [Example 2]
